From patent US20170204123A1, “Gold (I)-Phosphine Compounds as Anti-Bacterial Agents” (Auspherix Limited, priority 2014, published 2017) come the findings set out here.

SMILES strings stand for the structures.

The test system of the first data set is human hepatocyte cell line (HepG2). Briefly: HepG2 cell inhibition assay (CCK-8 cell viability). Conditions: 50% growth inhibition vs untreated control, 24 hours. It counts as cell-based. The procedure: HepG2 Cell Inhibition Assay
Cell counting kit-8 (Sigma, CCK-8) assays were performed to assess the effect of compounds on cell viability. The assay is based on the reduction of a water-soluble tetrazolium salt (WST-8) by cellular dehydrogenases to a formazan dye which can be detected spectroscopically. 96-well plates were seeded with the human hepatocyte cell line (HepG2) at approximately 8×10^3 cells per well in Minimum Essential Medium Eagle (EMEM) with Earle's salts and sodium bicarbonate supplemented with 10% heat-inactivated foetal bovine serum 2 mM glutamine and 1% non-essential amino acids (NEAA). The following day serial dilutions of compounds (dissolved and diluted in DMSO) were added to the cells in duplicates. Control included an ‘untreated’ control where cells were grown in the presence of 1% DMSO and a medium only control (plus 1% DMSO). After 24 hours CCK-8 reagent (10 μl) was added to each well and cell viability was assessed by measuring the absorbance at a wavelength of 450 nm after 2-3 h hours. Only living cells can reduce the tetrazolium salts into coloured formazan products. Results were expressed as 50% growth inhibition (TD50) values compared to ‘untreated’ control. The therapeutic index was calculated as the ratio of the dose that produces growth inhibition in 50% of HepG2 cells divided by the dose where 50% of S. aureus growth is inhibited.
As to `C[P](C)(=[Au][S]c1nc2ccccc2[nH]1)c1ccccc1` [Compound 13], the “HepG2 cell TD50” value worked out at 8.5 µg/mL.
For the compound `C[P](C)(=[Au][S]c1nc2ncccc2o1)c1ccccc1` [Compound 14], the “HepG2 cell TD50” value is 9 µg/mL.
The same measure, in the same setting: next, `COC(=O)[C@H](C[S][Au]=[P](C)(C)c1ccccc1)NC(C)=O` [Compound 15]: 6 µg/mL.
Same read-out and setting: next, `CC[P](CC)(CC)=[Au][S]C[C@H](NC(C)=O)C(N)=O` [Compound 16]: 9 µg/mL; `CC(C)[P](=[Au][S]c1nc2ccccc2[nH]1)(C(C)C)C(C)C` [Compound 20]: 6 µg/mL.
Still for that read-out and setting: to `COC(=O)[C@H](C[Se][Au]=[P](C)(c1ccccc1)c1ccccc1)NC(C)=O` [Compound 22] belongs 10 µg/mL.
`COC(=O)[C@H](C[Se][Au]=[P](C(C)C)(C(C)C)C(C)C)NC(C)=O` [Compound 23]: the “HepG2 cell TD50” value came out at 12 µg/mL.

The next data set has as its system chinese hamster ovary cells (CHO). Briefly: CHO toxicity assay (CCK-8 cell viability). It counts as cell-based. Particulars: 50% growth inhibition vs untreated control, 24 hours. As to the method:
Cell counting kit-8 (Sigma, CCK-8) assays were performed to assess the effect of compounds on cell viability. The assay is based on the reduction of a water-soluble tetrazolium salt (WST-8) by cellular dehydrogenases to a formazan dye which can be detected spectroscopically. 96-well plates were seeded with chinese hamster ovary cells (CHO) cells at 7×10^3 cells per well in Dulbecco's modified Eagle's medium nutrient mixture F-12 Ham (containing 15 mM HEPES, NaHCO3, pyridoxine and L-glutamine) supplemented with 10% fetal bovine serum (FBS). The following day serial dilutions of compounds (dissolved and diluted in DMSO) were added to the cells in duplicates. Control included an ‘untreated’ control where cells were grown in the presence of 1% DMSO and a medium only control (plus 1% DMSO). After 24 hours CCK-8 reagent (10 μl) was added to each well and cell viability was assessed by measuring the absorbance at a wavelength of 450 nm after 2.5-3 hours. Only living cells can reduce the tetrazolium salts into coloured formazan products. Results were expressed as 50% growth inhibition (TD50) values compared to ‘untreated’ control.
The therapeutic index was calculated as the ratio of the dose that produces growth inhibition in 50% of CHO cells divided by the dose where 50% of S. aureus growth is inhibited.
Consider `CC[P](CC)(CC)=[Au][S]C1CCOCC1` [Compound 1], for which the “CHO cell TD 50” value came to 0.5 µg/mL.
Regarding `CC[P](CC)(CC)=[Au][S]C1CCN(C(=O)OC(C)(C)C)CC1` [Compound 2], the “CHO cell TD 50” value is 0.7 µg/mL.
For `CC[P](CC)(CC)=[Au][S]c1ncccn1` [Compound 3], the “CHO cell TD 50” value was determined as 0.6 µg/mL.
As to `CC[P](CC)(CC)=[Au][S]c1cccnn1` [Compound 4], the “CHO cell TD 50” value was 1.4 µg/mL.
Same read-out and setting: next, `CC[P](CC)(CC)=[Au][S]c1nc2ccccc2[nH]1` [Compound 5]: 1.5 µg/mL; `CC[P](CC)(CC)=[Au][S][C@H]1CC[C@H](O)CC1` [Compound 6]: 1.5 µg/mL; `CC[P](CC)(CC)=[Au][S]C[C@H](NC(C)=O)C(=O)OC` [Compound 7]: 2.6 µg/mL.
Same read-out and setting: to `CC[P](CC)(CC)=[Au][S]c1nc2ncccc2o1` [Compound 8] belongs 1.6 µg/mL.
On the same count and under the same terms, next, `C[P](=[Au][S]c1nc2ccccc2[nH]1)(c1ccccc1)c1ccccc1` [Compound 9]: 2.6 µg/mL; `COC(=O)[C@H](C[S][Au]=[P](C)(c1ccccc1)c1ccccc1)NC(C)=O` [Compound 10]: 1.2 µg/mL.
Regarding `C[P](=[Au][S]c1nc2ncccc2o1)(c1ccccc1)c1ccccc1` [Compound 11], the “CHO cell TD 50” value came to 2.0 µg/mL.
As for `CC[P](CC)(CC)=[Au][Se]C[C@H](NC(C)=O)C(=O)OC` [Compound 12], the “CHO cell TD 50” value came to 6.5 µg/mL.
